Assay results as given in ChEMBL document CHEMBL3885881, “DrugMatrix”.

Organism: Rattus norvegicus
Assay type: toxicity, organism-based, Sprague-Dawley
Details: in vivo, ip, 24 h, route intraperitoneal, time 1 day, […]; for ABSOLUTE EOSINOPHIL / ABSOLUTE LYMPHOCYTE / ABSOLUTE MONOCYTE / ABSOLUTE SEGMENTED NEUTROPHIL / BASOPHIL / EOSINOPHIL / ERYTHROCYTE COUNT / HEMATOCRIT / HEMOGLOBIN / LEUKOCYTE COUNT / LYMPHOCYTE / MEAN CORPUSCULAR HEMOGLOBIN / MEAN CORPUSCULAR HEMOGLOBIN CONCENTRATION / MEAN CORPUSCULAR VOLUME / MONOCYTE / NEUTROPHIL / NUCLEATED RED BLOOD CELLS / PLATELET COUNT: tissue Blood; for ALANINE AMINOTRANSFERASE / ALBUMIN / ALKALINE PHOSPHATASE / ASPARTATE AMINOTRANSFERASE / BLOOD UREA NITROGEN / CARBON DIOXIDE / CHLORIDE / CHOLESTEROL / CREATININE / GLUCOSE / LACTATE DEHYDROGENASE / LIPASE / PHOSPHORUS / POTASSIUM / SODIUM / TOTAL BILIRUBIN / TOTAL PROTEIN / URIC ACID: tissue Plasma
[1] = 0 mg/kg, vehicle control, dose level Control

Description: DrugMatrix - Regimen: Single

SMILES: ClC(Cl)=C(Cl)C(Cl)=C(Cl)Cl [HEXACHLOROBUTADIENE]
- ABSOLUTE EOSINOPHIL [1]: 212 CELLS/uL
- ABSOLUTE LYMPHOCYTE [1]: 10220.17 CELLS/uL
- ABSOLUTE MONOCYTE [1]: 368.83 CELLS/uL
- ABSOLUTE SEGMENTED NEUTROPHIL [1]: 1749 CELLS/uL
- BASOPHIL [1]: 0%
- EOSINOPHIL [1]: 1.67%
- ERYTHROCYTE COUNT [1]: 5.74 x10E6/uL
- HEMATOCRIT [1]: 35.72%
- HEMOGLOBIN [1]: 13 G/DL
- LEUKOCYTE COUNT [1]: 12.55 x10E3/uL
- LYMPHOCYTE [1]: 81.83%
- MEAN CORPUSCULAR HEMOGLOBIN [1]: 22.65 pg
- MEAN CORPUSCULAR HEMOGLOBIN CONCENTRATION [1]: 36.42 G/DL
- MEAN CORPUSCULAR VOLUME [1]: 62.18 fL
- MONOCYTE [1]: 2.83%
- NEUTROPHIL [1]: 13.67%
- NUCLEATED RED BLOOD CELLS [1]: 0 /100WBC
- PLATELET COUNT [1]: 841.83 x10E3/uL
- ALANINE AMINOTRANSFERASE [1]: 54 u/L
- ALBUMIN [1]: 4.15 G/DL
- ALKALINE PHOSPHATASE [1]: 357.33 u/L
- ASPARTATE AMINOTRANSFERASE [1]: 116 u/L
- BLOOD UREA NITROGEN [1]: 14.17 mg/dL
- CARBON DIOXIDE [1]: 34.5 mmol/L
- CHLORIDE [1]: 99.17 MEQ/L
- CHOLESTEROL [1]: 79.17 mg/dL
- CREATININE [1]: 0.2 mg/dL
- GLUCOSE [1]: 143.33 mg/dL
- LACTATE DEHYDROGENASE [1]: 187.17 u/L
- LIPASE [1]: 8.83 u/L
- PHOSPHORUS [1]: 11.4 mg/dL
- POTASSIUM [1]: 6.36 MEQ/L
- SODIUM [1]: 143.32 MEQ/L
- TOTAL BILIRUBIN [1]: 0.23 mg/dL
- TOTAL PROTEIN [1]: 6.22 G/DL
- URIC ACID [1]: 1.25 mg/dL
- ABSOLUTE EOSINOPHIL (50 mg/kg, dose level High): 167 CELLS/uL
- ABSOLUTE LYMPHOCYTE (50 mg/kg, dose level High): 9489 CELLS/uL
- ABSOLUTE MONOCYTE (50 mg/kg, dose level High): 340.67 CELLS/uL
- ABSOLUTE SEGMENTED NEUTROPHIL (50 mg/kg, dose level High): 2070 CELLS/uL
- BASOPHIL (50 mg/kg, dose level High): 0%
- EOSINOPHIL (50 mg/kg, dose level High): 1.33%
- ERYTHROCYTE COUNT (50 mg/kg, dose level High): 5.16 x10E6/uL
- HEMATOCRIT (50 mg/kg, dose level High): 31.83%
- HEMOGLOBIN (50 mg/kg, dose level High): 11.8 G/DL
- LEUKOCYTE COUNT (50 mg/kg, dose level High): 12.07 x10E3/uL
- LYMPHOCYTE (50 mg/kg, dose level High): 79.33%
- MEAN CORPUSCULAR HEMOGLOBIN (50 mg/kg, dose level High): 22.87 pg
- MEAN CORPUSCULAR HEMOGLOBIN CONCENTRATION (50 mg/kg, dose level High): 37.07 G/DL
- MEAN CORPUSCULAR VOLUME (50 mg/kg, dose level High): 61.67 fL
- MONOCYTE (50 mg/kg, dose level High): 2.67%
- NEUTROPHIL (50 mg/kg, dose level High): 16.67%
- NUCLEATED RED BLOOD CELLS (50 mg/kg, dose level High): 0 /100WBC
- PLATELET COUNT (50 mg/kg, dose level High): 549 x10E3/uL
- ALANINE AMINOTRANSFERASE (50 mg/kg, dose level High): 65.67 u/L
- ALBUMIN (50 mg/kg, dose level High): 4.2 G/DL
- ALKALINE PHOSPHATASE (50 mg/kg, dose level High): 368.67 u/L
- ASPARTATE AMINOTRANSFERASE (50 mg/kg, dose level High): 251.67 u/L
- BLOOD UREA NITROGEN (50 mg/kg, dose level High): 15.33 mg/dL
- CARBON DIOXIDE (50 mg/kg, dose level High): 30.33 mmol/L
- CHLORIDE (50 mg/kg, dose level High): 100.67 MEQ/L
- CHOLESTEROL (50 mg/kg, dose level High): 75.67 mg/dL
- CREATININE (50 mg/kg, dose level High): 0.22 mg/dL
- GLUCOSE (50 mg/kg, dose level High): 192.33 mg/dL
- LACTATE DEHYDROGENASE (50 mg/kg, dose level High): 377.67 u/L
- LIPASE (50 mg/kg, dose level High): 9 u/L
- PHOSPHORUS (50 mg/kg, dose level High): 12.03 mg/dL
- POTASSIUM (50 mg/kg, dose level High): 5.96 MEQ/L
- SODIUM (50 mg/kg, dose level High): 144.97 MEQ/L
- TOTAL BILIRUBIN (50 mg/kg, dose level High): 0.23 mg/dL
- TOTAL PROTEIN (50 mg/kg, dose level High): 6.1 G/DL
- URIC ACID (50 mg/kg, dose level High): 1.2 mg/dL
